The test system of one series is MES-SA. Nature of the series: MTT assay, MES-SA cells. The series is classed as cell-based. The settings on record: Homo sapiens, 48 hrs. As to the method: (§1) HL-60, Hep 3B, H460, MES-SA, MES-SAID x5 and Detroit 551 cells were treated with vehicle or test compounds for 48 h. The cell growth rate was determined by MTT (3-(4,5-dimethyl-thiazol-2-yl)-2,5-diphenyltetrazoliun bromide) reduction assay.

For the next series, the system named is Detroit 551. Kind of series: MTT assay, Detroit 551 normal human cells. The series is classed as cell-based. Conditions: Homo sapiens, Detroit 551, 48 hrs. As for the experimental part:
(§2) MTT (3-(4,5-Dimethylthiazol-2-yl)-2,5-diphenyltetrazolium bromide) assays.^21,22 HL-60, HCT-116, Hep 3B, H460, Detroit 551 and HT29/FuR cells were treated with tested compounds for the indicated periods. After treatment, cells were washed once with PBS and incubated with MTT (Sigma, St. Louis, Mo., USA) for 2 h. The formazan precipitate was dissolved in 150 μL of DMSO, and the absorbance was measured with an ELISA reader at 570 nm.
as §1
(§3) MTT (3-(4,5-Dimethylthiazol-2-yl)-2,5-diphenyltetrazolium bromide) assays. HL-60, Hep 3B, H460, A498, Colo205 and Detroit 551 cells were treated with tested compounds for the indicated periods. After treatment, cells were washed once with PBS and incubated with MTT (Sigma, St. Louis, Mo., USA) for 2 h. The formazan precipitate was dissolved in 150 μL of DMSO, and the absorbance was measured with an ELISA reader at 570 nm.

For a further series, the system named is HL-60. Kind of series: MTT assay, HL-60 cells. Format: cell-based. Conditions: Homo sapiens, 48 hrs. As for the experimental part: as §2, §1
(§4) MTT (3-(4,5-Dimethylthiazol-2-yl)-2,5-diphenyltetrazolium bromide) assays. HL-60, HCT-116, A549, Hep 3B, KB, Kb-VIN and DU145 cells were treated with tested compounds for the indicated periods. After treatment, cells were washed once with PBS and incubated with MTT (Sigma, St. Louis, Mo., USA) for 2 h. The formazan precipitate was dissolved in 150 μL of DMSO, and the absorbance was measured with an ELISA reader at 570 nm.
as §3

The subject of the next series is Hep3B. Nature of the series: MTT assay, Hep 3B cells. Format: cell-based. The settings on record: Homo sapiens, 48 hrs. As for the experimental part:
as §2, §1, §4, §3

The subject of the next series is H460. Kind of series: MTT assay, H460 cells. The series is classed as cell-based. Conditions: Homo sapiens, NCI-H460, 48 hrs. As to the method: as §2, §1, §3
The subject of another series is MES-SA/Dx5. Kind of series: MTT assay, MES-SA/Dx5 cells. Format: cell-based, human. The settings on record: for IC50: Homo sapiens, MES-SA/Dx5, 48 hrs; for Ratio Of SA/Dx5: IC50 MES-SA/Dx5 over IC50 MES-SA. As to the method:
as §1

`O=C1CC(c2cccc3c2OCO3)=Nc2ccc(N3CCOCC3)cc21` [Compound 124, 2-(Benzo[d][1,3]-dioxol-4-yl)-6-morpholinoquinolin-4-one]: the melting point was in the range of 350 to 352 °C. This molecule also displayed an IC50 with MES-SA (Table 2, B-1 series) of 2350 nM. For the same molecule, the half-inhibitory concentration (IC50) in the series with Detroit 551 (Table 2, B-1 series) was over 2500 nM. For the same molecule, 720 nM corresponded to half-maximal inhibition in the series on HL-60 (Table 2, B-1 series) (IC50). In the series with Hep3B (Table 2, B-1 series), this molecule yielded a concentration for half-maximal inhibition (IC50) of 1500 nM. In addition, half-maximal inhibition in the series with H460 (Table 2, B-1 series) (IC50) required 2130 nM. Also, in the series on MES-SA/Dx5 (Table 2, B-1 series), the IC50 worked out at 2100 nM and the “Ratio Of SA/Dx5” value was 0.89.
`O=C1CC(c2cccc3c2OCO3)=Nc2ccc(N3CCCC3)cc21` [Compound 125, 2-(Benzo[d][1,3]-dioxol-4-yl)-6-pyrrolidinoquinolin-4-one] displayed a melting point of 330 to 332 °C. Further, the IC50 in the series with MES-SA (Table 3, B-2 series) was determined as 100 nM. The molecule also displayed a 50% inhibitory concentration (IC50) with Detroit 551 (Table 3, B-2 series) of over 2500 nM. Half-maximal inhibition in the series on HL-60 (Table 3, B-2 series) (IC50) was put at 80 nM. Further, in the series with Hep3B (Table 3, B-2 series), half-maximal inhibition (IC50) was put at 200 nM. This molecule had an IC50 in the series on H460 (Table 3, B-2 series) of 200 nM. Moreover, in the series on MES-SA/Dx5 (Table 3, B-2 series), half-maximal inhibition (IC50) was put at 183 nM and the “Ratio Of SA/Dx5” value is 1.83.
With `COc1cccc(C2=Nc3ccc(N4CCOCC4)cc3C(=O)C2)c1OC` [Compound 126, 2-(2,3-Dimethoxyphenyl)-6-morpholinoquinolin-4-one], the melting point fell in the range of 235 to 236 °C. In the series on MES-SA (Table 2, B-1 series), this molecule returned an IC50 of 5000 nM. The same molecule gave an IC50 in the series with Detroit 551 (Table 2, B-1 series) of over 50000 nM. The same molecule came in with an IC50 with HL-60 (Table 2, B-1 series) of 5220 nM. The molecule further gave an IC50 in the series on Hep3B (Table 2, B-1 series) of 9800 nM. Besides, the half-inhibitory concentration (IC50) in the series on H460 (Table 2, B-1 series) stood at 17400 nM. In addition, in the series with MES-SA/Dx5 (Table 2, B-1 series), the IC50 was determined as 17500 nM and the “Ratio Of SA/Dx5” value amounted to 3.49.
`COc1cccc(C2=Nc3ccc(N4CCCC4)cc3C(=O)C2)c1OC` [Compound 127, 2-(2,3-Dimethoxyphenyl)-6-pyrrolidinoquinolin-4-one] displayed a melting point of 258 to 260 °C. In the series with MES-SA (Table 3, B-2 series), this molecule returned an IC50 of 802 nM. The molecule also yielded a half-inhibitory concentration (IC50) in the series with Detroit 551 (Table 3, B-2 series) of over 20000 nM. The same molecule returned a half-inhibitory concentration (IC50) in the series on HL-60 (Table 3, B-2 series) of 530 nM. The same molecule gave a 50% inhibitory concentration (IC50) in the series with Hep3B (Table 3, B-2 series) of 1200 nM. Moreover, the concentration for half-maximal inhibition (IC50) with H460 (Table 3, B-2 series) came out at 1780 nM. Further, in the series with MES-SA/Dx5 (Table 3, B-2 series), the IC50 amounted to 1710 nM and the “Ratio Of SA/Dx5” value was 2.13.
For `COc1ccc(OC)c(C2=Nc3ccc(N4CCCC4)cc3C(=O)C2)c1` [Compound 129, 2-(2,5-Dimethoxyphenyl)-6-pyrrolidinoquinolin-4-one], the melting point lay in the range of 272 to 274 °C. For the same molecule, half-maximal inhibition with MES-SA (Table 3, B-2 series) (IC50) was put at 229 nM. The molecule further had a concentration for half-maximal inhibition (IC50) in the series on Detroit 551 (Table 3, B-2 series) of 5000 nM. The same molecule showed an IC50 in the series on HL-60 (Table 3, B-2 series) of 6 nM. Besides, the IC50 with Hep3B (Table 3, B-2 series) is 220 nM. For the same molecule, inhibition with H460 (Table 3, B-2 series) was half-maximal at 190 nM (IC50). For the same molecule, in the series on MES-SA/Dx5 (Table 3, B-2 series), the IC50 was 216 nM and the “Ratio Of SA/Dx5” value was found to be 0.94.
In the case of `COc1ccccc1C1=Nc2ccc(N3CCCC3)cc2C(=O)C1` [Compound 131, 2-(2-Methoxyphenyl)-6-pyrrolidinoquinolin-4-one], the melting point was in the range of 312 to 313 °C. For the same molecule, the midpoint of inhibition in the series with MES-SA (Table 3, B-2 series), the IC50, lay at 445 nM. Moreover, the IC50 with Detroit 551 (Table 3, B-2 series) was over 10000 nM. This molecule also had an IC50 in the series with HL-60 (Table 3, B-2 series) of 130 nM. For the same molecule, the half-inhibitory concentration (IC50) with Hep3B (Table 3, B-2 series) amounted to 300 nM. Besides, the IC50 in the series on H460 (Table 3, B-2 series) came to 570 nM. In the series with MES-SA/Dx5 (Table 3, B-2 series), it took 451 nM to reach half-maximal inhibition (IC50) and the “Ratio Of SA/Dx5” value was found to be 1.01.
Take `O=C1CC(c2ccccc2O)=Nc2ccc(N3CCCC3)cc21` [Compound 135, 2-(2-Hydroxyphenyl)-6-pyrrolidinoquinolin-4-one]: the melting point lay within 304 to 306 °C. The same molecule came in with an IC50 with MES-SA (Table 3, B-2 series) of 846 nM. In the series on Detroit 551 (Table 3, B-2 series), this molecule displayed an IC50 of 25000 nM. Besides, in the series with HL-60 (Table 3, B-2 series), the half-inhibitory concentration (IC50) worked out at 360 nM. In the series with Hep3B (Table 3, B-2 series), this molecule came in with an IC50 of 1310 nM. Half-maximal inhibition in the series with H460 (Table 3, B-2 series) (IC50) required 860 nM. In addition, in the series on MES-SA/Dx5 (Table 3, B-2 series), it took 1000 nM to reach half-maximal inhibition (IC50) and the “Ratio Of SA/Dx5” value was found to be 1.18.
For `O=C1CC(c2cccc(O)c2)=Nc2ccc(N3CCOCC3)cc21` [Compound 137, 2-(3-Hydroxyphenyl)-6-morpholinoquinolin-4-one], the melting point lay in the range of 357 to 360 °C. Also, the IC50 with MES-SA (Table 2, B-1 series) came to 3610 nM. Moreover, 10000 nM corresponded to half-maximal inhibition in the series with Detroit 551 (Table 2, B-1 series) (IC50). In addition, in the series on HL-60 (Table 2, B-1 series), the midpoint of inhibition, the IC50, lay at 230 nM. Also, the IC50 in the series on Hep3B (Table 2, B-1 series) came out at 11500 nM. Besides, in the series with H460 (Table 2, B-1 series), the IC50 was found to be 24800 nM. Also, in the series with MES-SA/Dx5 (Table 2, B-1 series), the IC50 was determined as 7300 nM and the “Ratio Of SA/Dx5” value stood at 2.02.
For `O=C1CC(c2cccc(O)c2)=Nc2ccc(N3CCCC3)cc21` [Compound 138, 2-(3-Hydroxyphenyl)-6-pyrrolidinoquinolin-4-one], the melting point lay in the range of 364 to 367 °C. This molecule had an IC50 in the series with MES-SA (Table 3, B-2 series) of 734 nM. The 50% inhibitory concentration (IC50) in the series on Detroit 551 (Table 3, B-2 series) came out at 1390 nM. In addition, the IC50 in the series on HL-60 (Table 3, B-2 series) worked out at 9 nM. This molecule also yielded an IC50 in the series with Hep3B (Table 3, B-2 series) of 280 nM. Also, in the series on H460 (Table 3, B-2 series), half-maximal inhibition (IC50) required 400 nM. For the same molecule, in the series on MES-SA/Dx5 (Table 3, B-2 series), the IC50 was determined as 320 nM and the “Ratio Of SA/Dx5” value worked out at 0.23.
Regarding `CN(C)c1ccc2c(c1)C(=O)CC(c1cccc(O)c1)=N2` [Compound 139, 2-(3-Hydroxyphenyl)-6-dimethylaminoquinolin-4-one], the melting point was in the range of 342 to 344 °C. Besides, the IC50 in the series with MES-SA (Table 4, B-3 series) worked out at 931 nM. Moreover, half-maximal inhibition in the series with Detroit 551 (Table 4, B-3 series) (IC50) required 10000 nM. Further, it took 60 nM to reach half-maximal inhibition in the series on HL-60 (Table 4, B-3 series) (IC50). The molecule further displayed an IC50 in the series on Hep3B (Table 4, B-3 series) of 1000 nM. Moreover, in the series with H460 (Table 4, B-3 series), the half-maximal inhibitory concentration (IC50) came out at 6200 nM. Besides, in the series with MES-SA/Dx5 (Table 4, B-3 series), half-maximal inhibition (IC50) required 852 nM and the “Ratio Of SA/Dx5” value is reported as 0.92.

(Values after patent US8524740B2, “Synthesis and anticancer activity of aryl and heteroaryl-quinolin derivatives” (Tairx, Inc., priority 2010, dated 2013).)
